From PMC5601359 (Journal of Medicinal Chemistry, 2017)
Read-outs that look alike come from different tables or passages of the source.

Assays:
HIV-1 IN [1] = biological target: T1, HIV-1 IN (Human immunodeficiency virus type 1 group M subtype B, UniProt P12497); assay: in vitro IN assay, 3′-processing; format: biochemical
[2] = test system: HIV-1 vector carrying Y143R IN mutant; conditions: cited from earlier work; for FC, fold change relative to WT, Y143R: EC50 of mutant/EC50 of WT; for EC50: read-out: EC50 Y143R, HOS cells, vector harboring Y143R IN
[3] = test system: HIV-1 vector carrying N155H IN mutant; conditions: cited from earlier work; for FC, fold change relative to WT, N155H: EC50 of mutant/EC50 of WT; for EC50: read-out: EC50 N155H, HOS cells, vector harboring N155H IN
[4] = test system: human osteosarcoma (HOS) cells; conditions: 50% reduction in the level of ATP in HOS cells; cited from earlier work
[5] = test system: HIV-1 vector carrying WT IN; conditions: read-out: EC50 WT; HOS cells, vector harboring WT IN; cited from earlier work
[6] = test system: HIV-1 vector carrying G140S/Q148H IN mutant; conditions: cited from earlier work; for FC, fold change relative to WT, G140S/Q148H: EC50 of mutant/EC50 of WT; for EC50: read-out: EC50 G140S/Q148H, HOS cells, vector harboring G140S/Q148H IN
[7] = test system: HIV-1 vector carrying G140S/Q148H IN mutant; assay: single-round HIV-1 infectivity assay, vector with G140S/Q148H IN; format: cell-based; conditions: for FC, fold change relative to WT, G140S/Q148H: EC50 of mutant/EC50 of WT; for EC50: Human immunodeficiency virus 1, HOS, read-out: EC50 G140S/Q148H
[8] = test system: HIV-1 vector carrying N155H IN mutant; assay: single-round HIV-1 infectivity assay, vector with N155H IN; format: cell-based; conditions: for FC, fold change relative to WT, N155H: EC50 of mutant/EC50 of WT; for EC50: Human immunodeficiency virus 1, HOS, read-out: EC50 N155H; for fold improvement relative to DTG, N155H: EC50 of compound/EC50 of DTG
[9] = test system: HIV-1 vector carrying Y143R IN mutant; assay: single-round HIV-1 infectivity assay, vector with Y143R IN; format: cell-based; conditions: for FC, fold change relative to WT, Y143R: EC50 of mutant/EC50 of WT; for EC50: Human immunodeficiency virus 1, HOS, read-out: EC50 Y143R
HIV-1 IN [10] = biological target: T1, HIV-1 IN; assay: in vitro IN assay, strand transfer; format: biochemical
in vitro = conditions: human
[11] = test system: HIV-1 vector carrying H51Y IN mutant; assay: single-round HIV-1 infectivity assay, vector with H51Y IN; format: cell-based; conditions: EC50 of compound/EC50 of DTG
[12] = test system: HIV-1 vector carrying E92Q IN mutant; assay: single-round HIV-1 infectivity assay, vector with E92Q IN; format: cell-based; conditions: EC50 of compound/EC50 of DTG
[13] = test system: HIV-1 vector carrying WT IN; assay: single-round HIV-1 infectivity assay, vector with WT IN; format: cell-based; conditions: EC50 of compound/EC50 of DTG
[14] = test system: HIV-1 vector carrying T66I IN mutant; assay: single-round HIV-1 infectivity assay, vector with T66I IN; format: cell-based; conditions: EC50 of compound/EC50 of DTG
[15] = test system: HIV-1 vector carrying H51Y/R263K IN mutant; assay: single-round HIV-1 infectivity assay, vector with H51Y/R263K IN; format: cell-based; conditions: EC50 of compound/EC50 of DTG
[16] = test system: HIV-1 vector carrying G118R IN mutant; assay: single-round HIV-1 infectivity assay, vector with G118R IN; format: cell-based; conditions: EC50 of compound/EC50 of DTG
[17] = test system: HIV-1 vector carrying R263K IN mutant; assay: single-round HIV-1 infectivity assay, vector with R263K IN; format: cell-based; conditions: EC50 of compound/EC50 of DTG
[18] = test system: HIV-1 vector carrying R263K IN mutant; conditions: cited from earlier work; for EC50: read-out: EC50 R263K, vector harboring R263K IN
[19] = test system: HIV-1 vector carrying G118R IN mutant; conditions: cited from earlier work; for EC50: read-out: EC50 G118R, vector harboring G118R IN
[20] = test system: HIV-1 vector carrying E92Q IN mutant; conditions: cited from earlier work; for EC50: read-out: EC50 E92Q, vector harboring E92Q IN
[21] = test system: HIV-1 vector carrying T66I IN mutant; conditions: cited from earlier work; for EC50: read-out: EC50 T66I, vector harboring T66I IN
[22] = test system: HIV-1 vector carrying H51Y/R263K IN mutant; conditions: cited from earlier work; for EC50: read-out: EC50 H51Y/R263K, vector harboring H51Y/R263K IN
[23] = test system: HIV-1 vector carrying H51Y IN mutant; conditions: cited from earlier work; for EC50: read-out: EC50 H51Y, vector harboring H51Y IN

SMILES: COC(=O)CNc1c(C(=O)NCc2ccc(F)cc2F)c(=O)n(O)c2nc(N3CCCCC3)ccc12 [5h, Methyl 2-((3-((2,4-Difluorobenzyl)carbamoyl)-1-hydroxy-2-oxo-7-(piperidin-1-yl)-1,2-dihydro-1,8-naphthyridin-4-yl)amino)acetate]
- IC50 (HIV-1 IN [1]): > 333000 nM

SMILES: COC(=O)CNc1c(C(=O)NCc2ccc(F)cc2F)c(=O)n(O)c2nc(N3CCOCC3)ccc12 [5i, Methyl 2-((3-((2,4-Difluorobenzyl)carbamoyl)-1-hydroxy-7-morpholino-2-oxo-1,2-dihydro-1,8-naphthyridin-4-yl)amino)acetate]
- IC50 (HIV-1 IN [1]): > 333000 nM

SMILES: O=C(NCc1ccc(F)cc1F)c1c(O)c2cccnc2n(O)c1=O [5′a]
- FC, fold change relative to WT, Y143R [2]: 2 ×
- EC50 [2]: 11 ± 2 nM
- FC, fold change relative to WT, N155H [3]: 5 ×
- EC50 [3]: 31 ± 8 nM
- CC50 [4]: 137000 ± 20000 nM
- EC50 [5]: 6.2 ± 2.9 nM
- FC, fold change relative to WT, G140S/Q148H [6]: 50 ×
- EC50 [6]: 308 ± 125 nM

SMILES: Nc1c(C(=O)NCc2ccc(F)cc2F)c(=O)n(O)c2ncccc12 [5′d]
- CC50 [4]: > 250000 nM
- EC50 [5]: 1.1 ± 0.7 nM

SMILES: COC(=O)CNc1c(C(=O)NCc2ccc(F)cc2F)c(=O)n(O)c2ncccc12 [5′g]
- FC, fold change relative to WT, G140S/Q148H [7]: 9 ×
- EC50 [7]: 36 ± 16 nM
- FC, fold change relative to WT, N155H [8]: 5 ×
- EC50 [8]: 19 ± 7 nM
- FC, fold change relative to WT, Y143R [9]: 1 ×
- EC50 [9]: 4.6 ± 2.2 nM

SMILES: CC(=O)OCCCc1cnc2c(c1)c(N)c(C(=O)NCc1ccc(F)cc1F)c(=O)n2O [6b, 3-(5-Amino-6-((2,4-difluorobenzyl)carbamoyl)-8-hydroxy-7-oxo-7,8-dihydro-1,8-naphthyridin-3-yl)propyl Acetate]
- IC50 (HIV-1 IN [10]; ST IC50, as stated in text): ≤ 10 nM

SMILES: Nc1c(C(=O)NCc2ccc(F)cc2F)c(=O)n(O)c2ncc(CCCCCCOC(=O)c3ccccc3)cc12 [6c, 6-(5-Amino-6-((2,4-difluorobenzyl)carbamoyl)-8-hydroxy-7-oxo-7,8-dihydro-1,8-naphthyridin-3-yl)hexyl Benzoate]
- FC, fold change relative to WT, G140S/Q148H [7]: 4 ×
- EC50 [7]: 21 ± 7.8 nM
- FC, fold change relative to WT, N155H [8]: 1 ×
- EC50 [8]: 5.4 ± 1.9 nM
- CC50 (in vitro): 14400 ± 4800 nM
- FC, fold change relative to WT, Y143R [9]: 0.7 ×
- EC50 [9]: 3.5 ± 1.2 nM
- IC50 (HIV-1 IN [10]; in vitro IC50 ST, gel-based protocol, Mg2+ cofactor): 3300 ± 600 nM

SMILES: Nc1c(C(=O)NCc2ccc(F)cc2F)c(=O)n(O)c2ncc(CCC(=O)O)cc12 [6i, 3-(5-Amino-6-((2,4-difluorobenzyl)carbamoyl)-8-hydroxy-7-oxo-7,8-dihydro-1,8-naphthyridin-3-yl)propanoic Acid]
- IC50 (HIV-1 IN [10]; ST IC50, as stated in text): ≤ 10 nM

SMILES: Nc1c(C(=O)NCc2ccc(F)cc2F)c(=O)n(O)c2ncc(CCC(=O)NCCO)cc12 [6n, 4-Amino-N-(2,4-difluorobenzyl)-1-hydroxy-6-(3-((2-hydroxyethyl)amino)-3-oxopropyl)-2-oxo-1,2-dihydro-1,8-naphthyridine-3-carboxamide]
- IC50 (HIV-1 IN [10]; ST IC50, as stated in text): < 10 nM

SMILES: Nc1c(C(=O)NCc2ccc(F)cc2F)c(=O)n(O)c2ncc(/C=C/C(=O)NCCO)cc12 [6o, (E)-4-Amino-N-(2,4-difluorobenzyl)-1-hydroxy-6-(3-((2-hydroxyethyl)amino)-3-oxoprop-1-en-1-yl)-2-oxo-1,2-dihydro-1,8-naphthyridine-3-carboxamide]
- IC50 (HIV-1 IN [10]; ST IC50, as stated in text): < 10 nM

SMILES: COC(=O)CCc1cnc2c(c1)c(N)c(C(=O)NCc1ccc(F)cc1F)c(=O)n2O [6p, Methyl 3-(5-Amino-6-((2,4-difluorobenzyl)carbamoyl)-8-hydroxy-7-oxo-7,8-dihydro-1,8-naphthyridin-3-yl)propanoate]
- fold improvement relative to DTG, G140S/Q148H ([7]; EC50 of compound/EC50 of DTG): 5.3 ± 1.8 (0.91×)
- fold improvement relative to DTG, H51Y [11]: 0.63 ± 0.30 (0.20×)
- fold improvement relative to DTG, N155H [8]: 2.3 ± 0.2 (0.64×)
- fold improvement relative to DTG, E92Q [12]: 2.0 ± 1.1 (0.87×)
- fold improvement relative to DTG, WT [13]: 0.67 ± 0.15 (0.42×)
- fold improvement relative to DTG, T66I [14]: 0.53 ± 0.06 (0.59×)
- fold improvement relative to DTG, H51Y/R263K [15]: 2.4 ± 0.8 (0.15×)
- fold improvement relative to DTG, G118R [16]: 4.8 ± 1.5 (0.37×)
- fold improvement relative to DTG, Y143R ([9]; EC50 of compound/EC50 of DTG): 0.67 ± 0.23 (0.16×)
- IC50 (HIV-1 IN [10]; ST IC50, as stated in text): ≤ 10 nM
- fold improvement relative to DTG, R263K [17]: 0.5 ± 0.0 (0.05×)

SMILES: Nc1c(C(=O)NCc2ccc(F)cc2F)c(=O)n(O)c2ncc(CCCCCO)cc12 [6′b]
- fold improvement relative to DTG, N155H [8]: 2.4 ± 0.8 (0.67×)
- fold improvement relative to DTG, WT [13]: 1.3 ± 0.2 (0.81×)
- fold improvement relative to DTG, H51Y/R263K [15]: 2.6 ± 1.4 (0.16×)
- CC50 [4]: > 250000 nM
- fold improvement relative to DTG, G118R [16]: 5.3 ± 1.6 (0.41×)
- fold improvement relative to DTG, R263K [17]: 2.6 ± 0.1 (0.24×)

SMILES: C[C@@H]1CCO[C@H]2Cn3cc(C(=O)NCc4ccc(F)cc4F)c(=O)c(O)c3C(=O)N12 [DTG (3), dolutegravir]
- EC50 [18]: 11 ± 3 nM
- EC50 [19]: 13 ± 5 nM
- EC50 [20]: 2.3 ± 0.4 nM
- EC50 [21]: 0.9 ± 0.8 nM
- EC50 [3]: 3.6 ± 1.3 nM
- CC50 [4]: > 250000 nM
- EC50 [22]: 16 ± 2 nM
- EC50 [5]: 1.6 ± 0.9 nM

SMILES: COc1cc2c(cc1Cc1cccc(Cl)c1F)c(=O)c(C(=O)O)cn2[C@H](CO)C(C)C [EVG (2), elvitegravir]
- FC, fold change relative to WT, R263K ([18]; EC50 of mutant/EC50 of WT): 2 ×
- EC50 [18]: 10 ± 6 nM
- FC, fold change relative to WT, G118R ([19]; EC50 of mutant/EC50 of WT): 3 ×
- EC50 [19]: 21 ± 10 nM
- FC, fold change relative to WT, E92Q ([20]; EC50 of mutant/EC50 of WT): 24 ×
- EC50 [20]: 154 ± 34 nM
- FC, fold change relative to WT, Y143R [2]: 1 ×
- EC50 [2]: 7.9 ± 2.3 nM
- FC, fold change relative to WT, T66I ([21]; EC50 of mutant/EC50 of WT): 10 ×
- EC50 [21]: 66 ± 1 nM
- FC, fold change relative to WT, N155H [3]: 14 ×
- EC50 [3]: 90 ± 18 nM
- CC50 [4]: > 250000 nM
- FC, fold change relative to WT, H51Y/R263K ([22]; EC50 of mutant/EC50 of WT): 8 ×
- EC50 [22]: 53 ± 18 nM
- FC, fold change relative to WT, H51Y ([23]; EC50 of mutant/EC50 of WT): 0.7 ×
- EC50 [23]: 4.5 ± 2.1 nM
- EC50 [5]: 6.4 ± 0.8 nM
- FC, fold change relative to WT, G140S/Q148H [6]: 891 ×
- EC50 [6]: 5700 ± 1100 nM

SMILES: Cc1nnc(C(=O)NC(C)(C)c2nc(C(=O)NCc3ccc(F)cc3)c(O)c(=O)n2C)o1 [RAL (1), raltegravir]
- EC50 [18]: 5.7 ± 2.3 nM
- EC50 [19]: 36 ± 5 nM
- EC50 [20]: 30 ± 10 nM
- EC50 [21]: 2.8 ± 0.4 nM
- CC50 [4]: > 250000 nM
- EC50 [22]: 6 ± 2.3 nM
- EC50 [23]: 3.4 ± 0.2 nM
- EC50 [5]: 4 ± 2 nM
